Measurements published in US7541331B2, “Surfactant treatment regimen” (Discovery Laboratories, Inc., priority 2005, dated 2009).

Test system: premature neonates
Assay: Pilot phase 2 open study of lucinactant delivered as an aerosol via nCPAP for prevention of RDS
Details: in vivo
Description: This example provides a protocol for administration of lucinactant as an aerosol via nCPA to premature infants. This protocol has been used in a pilot phase 2, open study to evaluate the feasibility, safety, and tolerability of lucinactant delivered as an aerosol via nCPAP for the prevention of RDS in premature neonates.
Lucinactant was administered using an approved vibrating machine device (Aeroneb-Pro® or equivalent) and delivered via nCPAP within 30 minutes of birth. In a first treatment group, 20 mg/ml of lucinactant was administered within the first 30 minutes of life continually over three hours. Up to three retreatments were permitted over a 48 hour period, with each treatment separated by at least 3 hours (from end of previous treatment). In a second treatment group, 20 mg/ml of lucinactant was administered within the first 30 minutes of life continually over three hours. Up to three retreatments were permitted over a 48 hour period, with each treatment separated by at least one hours (from end of previous treatment).
Qualified premature neonates were sequentially enrolled and stratified by gestational age (stratum 1:30-32 completed weeks followed by stratum 2:28-29 completed weeks) into the first treatment regimen group (3 hours on aerosol treatment/3 hours off aerosol treatment) and received aerosolized lucinactant via nCPAP. Safety and tolerability data were evaluated after enrollment of every five neonates. Once enrollment in the first treatment group was completed, neonates were sequentially enrolled and stratified into the second treatment group (3 hours on aerosol treatment/1 hours off aerosol treatment). All neonates enrolled were evaluated through 28 days of age.

Substance: lucinactant
- adverse effects considered related to both study drug and the device: 35.3%
- adverse effects considered related to study drug: 47.1%
- adverse effects considered related to the device: 11.8%
- incidence of apnea: 94.1%
- incidence of hypocalcemia: 29.4%
- incidence of oxygen saturation decreased: 70.6%
- incidence of patent ductus arteriosus: 35.3%
- safety and tolerability of treatment: generally safe and well tolerated
- serious adverse effects considered related to the device: Two
- total adverse effects reported: 83
- total serious adverse effects reported: 5
